From PMC4356640 (Pharmacogenetics and genomics, 2015)

Key:
[1] = tested on: CYP2D6 enzyme activity; experiment: 13C-dextromethorphan breath test; assay type: in vivo, human
[2] = Tamoxifen and metabolite steady state plasma concentrations; conditions: for pharmacokinetics differ by CYP2D6 genotype: 3 and 6 month visits; for 3m or 6m steady state concentrations correlated with age: p-values > 0.11

COc1ccc2c(c1)[C@]13CCCC[C@@H]1[C@H](C2)N(C)CC3 [DM, Dextromethorphan]
correlation (r) of baseline DM-BT values with CYP2D6 genotype ([1]; Spearman, p < 0.0001, n=77): 0.55 | correlation (r) of 6m DM-BT values with CYP2D6 genotype ([1]; Spearman, p < 0.001, n=55): 0.55 | correlation (r) of 3m DM-BT values with CYP2D6 genotype ([1]; Spearman, p< 0.0001, n=60): 0.58

CC/C(=C(\c1ccc(O)cc1)c1ccc(OCCN(C)C)cc1)c1ccccc1 [4HT, 4-hydroxytamoxifen]
pharmacokinetics differ by CYP2D6 genotype [2]: Neither tamoxifen, NDMT, or 4HT pharmacokinetics were found to differ by CYP2D6 genotype | 3m or 6m steady state concentrations correlated with age [2]: no evidence

Fc1ccc([C@@H]2CCNC[C@H]2COc2ccc3c(c2)OCO3)cc1 [paroxetine]
baseline DOB30 values lower than at 3 and 6 month visits after paroxetine was discontinued ([1]; one patient who took paroxetine prior to the baseline visit): > 50%

CC/C(=C(\c1ccccc1)c1ccc(OCCNC)cc1)c1ccccc1 [NDMT, N-desmethyltamoxifen]
pharmacokinetics differ by CYP2D6 genotype [2]: Neither tamoxifen, NDMT, or 4HT pharmacokinetics were found to differ by CYP2D6 genotype | 3m or 6m steady state concentrations correlated with age [2]: no evidence

CC/C(=C(\c1ccc(O)cc1)c1ccc(OCCNC)cc1)c1ccccc1 [Endx, endoxifen]
correlation (r) of CYP2D6 genotype with 3m Endx Css ([2]; Spearman, p < 0.0001, n=57): 0.47 | correlation (r) of CYP2D6 genotype with 3m Endx/NDMT ratio ([2]; Spearman, p < 0.0001, n=57): 0.60 | correlation (r) of CYP2D6 genotype with 6m Endx/NDMT ratio ([2]; Spearman, p<0.0001, n=54): 0.61 | correlation (r) of CYP2D6 genotype with 6 month Endx Css ([2]; Spearman, p<0.0001, n=54): 0.56 | concentrations of endoxifen, fold lower than that of Lien et al ([2]; comparison with ref 14): ~8 fold | concentration at 3 months ([2]; human, plasma, oral, 20 mg daily, Median Endx concentration (range), Endx Css, 3 months, CYP2D6 PM/PM, activity score 0, n=2): 5.5 nM | concentration at 6 months ([2]; human, plasma, oral, 20 mg daily, Median Endx concentration (range), Endx Css, 6 months, CYP2D6 PM/PM, activity score 0, n=2): 6.7 nM | 3m or 6m steady state concentrations correlated with age [2]: no evidence

CC/C(=C(\c1ccccc1)c1ccc(OCCN(C)C)cc1)c1ccccc1 [tamoxifen, Tamoxifen, reference compound]
3m or 6m steady state concentrations correlated with age [2]: no evidence
